Test results reported in patent US9693556B2, “Herbicidal pyridazinone derivatives” (SYNGENTA LIMITED, priority 2011, dated 2017).

What was measured:
Assay type in all cases: in vivo
[1] = tested on: Alopecurus myosuroides (ALOMY); test: Pre-emergence herbicidal glasshouse test on Alopecurus myosuroides; conditions: pre-emergence; 1000 g/h; evaluated after 13 days
Summary of the method: (§1)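 Steps: sow seeds in standard soil; cultivate 1 d (pre-) or 8 d (post-emergence) at 24/16 °C, 14 h light, 65% humidity; spray 1000 g/h in acetone/water plus Tween 20; grow on, watering twice daily; score percentage damage after 13 d.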

Setaria faberi (SETFA) [2] = test: Pre-emergence herbicidal glasshouse test on Setaria faberi; conditions: pre-emergence; 1000 g/h; evaluated after 13 days
Summary of the method: as §1

[3] = tested on: Echinochloa crus-galli (ECHCG); test: Pre-emergence herbicidal glasshouse test on Echinochloa crus-galli; conditions: pre-emergence; 1000 g/h; evaluated after 13 days
Summary of the method: as §1

Solanum nigrum (SOLNI) [4] = test: Pre-emergence herbicidal glasshouse test on Solanum nigrum; conditions: pre-emergence; 1000 g/h; evaluated after 13 days
Summary of the method: as §1

[5] = tested on: Amaranthus retoflexus (AMARE); test: Pre-emergence herbicidal glasshouse test on Amaranthus retoflexus; conditions: pre-emergence; 1000 g/h; evaluated after 13 days
Summary of the method: as §1

[6] = tested on: Ipomoea hederacea (IPOHE); test: Pre-emergence herbicidal glasshouse test on Ipomoea hederacea; conditions: pre-emergence; 1000 g/h; evaluated after 13 days
Summary of the method: as §1

[7] = tested on: Alopecurus myosuroides (ALOMY); test: Post-emergence herbicidal glasshouse test on Alopecurus myosuroides; conditions: post-emergence; 1000 g/h; evaluated after 13 days
Summary of the method: as §1

Setaria faberi (SETFA) [8] = test: Post-emergence herbicidal glasshouse test on Setaria faberi; conditions: post-emergence; 1000 g/h; evaluated after 13 days
Summary of the method: as §1

[9] = tested on: Echinochloa crus-galli (ECHCG); test: Post-emergence herbicidal glasshouse test on Echinochloa crus-galli; conditions: post-emergence; 1000 g/h; evaluated after 13 days
Summary of the method: as §1

Solanum nigrum (SOLNI) [10] = test: Post-emergence herbicidal glasshouse test on Solanum nigrum; conditions: post-emergence; 1000 g/h; evaluated after 13 days
Summary of the method: as §1

[11] = tested on: Amaranthus retoflexus (AMARE); test: Post-emergence herbicidal glasshouse test on Amaranthus retoflexus; conditions: post-emergence; 1000 g/h; evaluated after 13 days
Summary of the method: as §1

[12] = tested on: Ipomoea hederacea (IPOHE); test: Post-emergence herbicidal glasshouse test on Ipomoea hederacea; conditions: post-emergence; 1000 g/h; evaluated after 13 days
Summary of the method: as §1

Row | SMILES | PRE Application ALOMY herbicidal damage (five point scale) [1] | PRE Application SETFA herbicidal damage (five point scale) (Setaria faberi (SETFA) [2]) | PRE Application ECHCG herbicidal damage (five point scale) [3] | PRE Application SOLNI herbicidal damage (five point scale) (Solanum nigrum (SOLNI) [4]) | PRE Application AMARE herbicidal damage (five point scale) [5] | PRE Application IPOHE herbicidal damage (five point scale) [6] | POST Application ALOMY herbicidal damage (five point scale) [7] | POST Application SETFA herbicidal damage (five point scale) (Setaria faberi (SETFA) [8]) | POST Application ECHCG herbicidal damage (five point scale) [9] | POST Application SOLNI herbicidal damage (five point scale) (Solanum nigrum (SOLNI) [10]) | POST Application AMARE herbicidal damage (five point scale) [11] | POST Application IPOHE herbicidal damage (five point scale) [12]
1 | Cn1ncc(-c2ccc(C(F)(F)F)cc2S(C)(=O)=O)c(O)c1=O [Compound 1.028, 4-hydroxy-2-methyl-5-[2-methylsulfonyl-4-(trifluoromethyl)phenyl]pyridazin-3-one] | 5 (5=80-100% damage) | 5 (5=80-100% damage) | 5 (5=80-100% damage) | 5 (5=80-100% damage) | 5 (5=80-100% damage) | 5 (5=80-100% damage) | 5 (5=80-100% damage) | 5 (5=80-100% damage) | 5 (5=80-100% damage) | 5 (5=80-100% damage) | 5 (5=80-100% damage) | 5 (5=80-100% damage)
2 | Cn1ncc(-c2ccc(C(F)(F)F)cc2[S+](C)[O-])c(O)c1=O (stereo not drawn) [Compound 1.029] | 5 (5=80-100% damage) | 5 (5=80-100% damage) | 5 (5=80-100% damage) | 5 (5=80-100% damage) | 5 (5=80-100% damage) | 5 (5=80-100% damage) | 5 (5=80-100% damage) | 5 (5=80-100% damage) | 5 (5=80-100% damage) | 5 (5=80-100% damage) | 5 (5=80-100% damage) | 5 (5=80-100% damage)
3 | Cn1ncc(-c2ccc(S(C)(=O)=O)c3c2COC3)c(O)c1=O [Compound 1.030] | 1 (1=0-19% damage) | 1 (1=0-19% damage) | 2 (2=20-39% damage) | 4 (4=60-79% damage) | 5 (5=80-100% damage) | 1 (1=0-19% damage) | 1 (1=0-19% damage) | 2 (2=20-39% damage) | 4 (4=60-79% damage) | 5 (5=80-100% damage) | 5 (5=80-100% damage) | 3 (3=40-59% damage)
4 | Cc1cc(-c2cnn(C)c(=O)c2O)c(C)c2c1S(=O)(=O)CCC21OCCO1 [Compound 1.031] | 1 (1=0-19% damage) | 4 (4=60-79% damage) | 5 (5=80-100% damage) | 2 (2=20-39% damage) | 5 (5=80-100% damage) | 1 (1=0-19% damage) | 2 (2=20-39% damage) | 5 (5=80-100% damage) | 5 (5=80-100% damage) | 5 (5=80-100% damage) | 5 (5=80-100% damage) | 5 (5=80-100% damage)
